Data: the NIST ThermoML archive (doi:10.1021/acs.jced.5b00242)

How the values were obtained:
[1] = xn = mol fraction of the nth substance listed; details: 101 kPa, Liquid, x1 = 1; for viscosity: Stabinger Viscometer; for mass density: Vibrating tube method
[2] = refractive index (Na D-line) (dimensionless); xn = mol fraction of the nth substance listed; details: 101 kPa, Liquid, Standard Abbe refractometry, x1 = 1
[3] = Liquid; for viscosity: 101 kPa; for mass density: 101.33 kPa, Vibrating tube method
[4] = refractive index (Na D-line) (dimensionless); details: 101 kPa, Liquid, Standard Abbe refractometry

CCn1cc[n+](C)c1.N#C[C-](C#N)C#N [1-ethyl-3-methyl-1H-imidazolium tricyanomethanide] + CCn1cc[n+](C)c1.NCCS(=O)(=O)[O-]
Details	mass density, [1] [kg/m3]	refractive index, [2]	viscosity, [1] [mPa·s]
293.15 K	1084.6	1.51454	16.62
298.15 K	1081	1.51286	14.19
303.15 K	1077.5	1.51114	12.18
308.15 K	1073.9	1.50938	10.58
313.15 K	1070.4	1.50765	9.02
318.15 K	1067.1	1.50595	8.2
323.15 K	1063.7	1.50419	7.31
328.15 K	1060.3	1.50255	6.56
333.15 K	1056.9	1.50087	5.72
338.15 K	1053.6	1.49921	5.38
343.15 K	1050.2	1.49757	4.91
348.15 K	1046.8	1.49593	4.5
353.15 K	1043.4	1.49429	3.98

CCn1cc[n+](C)c1.N#C[C-](C#N)C#N [1-ethyl-3-methyl-1H-imidazolium tricyanomethanide] + CCn1cc[n+](C)c1.O=C([O-])[C@@H]1CCCN1
Details	mass density, [1] [kg/m3]	refractive index, [2]	viscosity, [1] [mPa·s]
293.15 K	1084.6	1.51454	16.62
298.15 K	1081	1.51286	14.19
303.15 K	1077.5	1.51114	12.18
308.15 K	1073.9	1.50938	10.58
313.15 K	1070.4	1.50765	9.02
318.15 K	1067.1	1.50595	8.2
323.15 K	1063.7	1.50419	7.31
328.15 K	1060.3	1.50255	6.56
333.15 K	1056.9	1.50087	5.72
338.15 K	1053.6	1.49921	5.38
343.15 K	1050.2	1.49757	4.91
348.15 K	1046.8	1.49593	4.5
353.15 K	1043.4	1.49429	3.98

CCn1cc[n+](C)c1.C[C@H](N)C(=O)[O-] [1-ethyl-3-methylimidazolium L-alaninate]
[3], Stabinger Viscometer
Details	viscosity [mPa·s]
293.15 K	382.06
298.15 K	263.98
303.15 K	187.79
308.15 K	137.47
313.15 K	103.54
318.15 K	79.34
323.15 K	62.21
328.15 K	49.69
333.15 K	40.5
338.15 K	33.22
343.15 K	27.72
348.15 K	23.38
353.15 K	20.03

Details	mass density, [3] [kg/m3]	refractive index, [4]
293.15 K	1126.3	1.51366
298.15 K	1123	1.51223
303.15 K	1119.8	1.51081
308.15 K	1116.6	1.50937
313.15 K	1113.5	1.50793
318.15 K	1110.5	1.50651
323.15 K	1107.5	1.50505
328.15 K	1104.4	1.50358
333.15 K	1101.3	1.50217
338.15 K	1098.3	1.50074
343.15 K	1095.2	1.49932
348.15 K	1092.1	1.49795
353.15 K	1088.9	1.49656

CCn1cc[n+](C)c1.NCC(=O)[O-] [1-ethyl-3-methylimidazolium ammonioacetate]
[3], Stabinger viscometer
Details	viscosity [mPa·s]
293.15 K	240.18
298.15 K	171.97
303.15 K	126.19
308.15 K	95.04
313.15 K	73.5
318.15 K	57.66
323.15 K	46.21
328.15 K	37.66
333.15 K	31.24
338.15 K	26.08
343.15 K	22.11
348.15 K	18.95
353.15 K	16.45

Details	mass density, [3] [kg/m3]	refractive index, [4]
293.15 K	1164.3	1.52134
298.15 K	1161.2	1.51997
303.15 K	1158.1	1.5186
308.15 K	1155	1.51724
313.15 K	1152	1.51585
318.15 K	1149	1.5145
323.15 K	1146	1.51313
328.15 K	1143	1.51179
333.15 K	1139.9	1.51041
338.15 K	1136.9	1.50904
343.15 K	1133.8	1.50769
348.15 K	1130.7	1.50637
353.15 K	1127.4	1.50495

CCn1cc[n+](C)c1.NCCS(=O)(=O)[O-] [1-ethyl-3-methylimidazolium taurinate]
[3], Stabinger Viscometer
Details	viscosity [mPa·s]
293.15 K	760.89
298.15 K	514.67
303.15 K	359.36
308.15 K	258.04
313.15 K	190.44
318.15 K	143.31
323.15 K	110.35
328.15 K	86.59
333.15 K	69.36
338.15 K	56.05
343.15 K	46.1
348.15 K	38.4
353.15 K	32.53

Details	mass density, [3] [kg/m3]	refractive index, [4]
293.15 K	1255	1.5135
298.15 K	1251.5	1.51217
303.15 K	1248.1	1.51084
308.15 K	1244.8	1.5095
313.15 K	1241.6	1.50816
318.15 K	1238.6	1.5068
323.15 K	1235.5	1.50543
328.15 K	1232.4	1.50403
333.15 K	1229.2	1.5027
338.15 K	1226.1	1.50136
343.15 K	1223	1.49997
348.15 K	1219.9	1.4986
353.15 K	1216.8	1.49726
